Consider two compounds from patent publication US11040963B2 (priority 2017, dated 2021).

The structures appear in SMILES notation.

Usually IC50 stands for the concentration at which inhibition is half-maximal. High values mean a need for much substance, low ones inhibition by little substance.

Series [1] addresses HA H1 A/California/07/09 (Influenza A virus (A/California/07/2009(H1N1)), UniProt C3W5X2). As to the kind of experiment: biochemical. To be noted: Competition binding (AlphaLISA), pIC50 H1 A/California/07/09. In general terms: Bead proximity is the source of the signal in Alpha formats.
Series [2] concerns the target HA H1 A/New Caledonia/20/99 (Influenza A virus (A/New Caledonia/20/1999(H1N1)), UniProt Q6WG00). In words: biochemical. As to conditions: Competition binding (AlphaLISA), pIC50 H1 A/New Caledonia/20/99.
Series [3] concerns H1N1 A/California/07/09. In words: microbe, parasite or virus in culture. It is filed as cell-based, influenza A virus.
The subject of series [4] is H1N1 A/New Caledonia/20/99. As to the kind of experiment: microbe, parasite or virus in culture. It counts as cell-based, influenza A virus.
In series [5] the test system is H1N1 A/PR/8/34-MA. In words: microbe, parasite or virus in culture. It counts as cell-based, influenza A virus.
In series [6] the test system is H5N1 A/Vietnam/1203/04. As to the kind of experiment: microbe, parasite or virus in culture. It is filed as cell-based, influenza A virus. To be noted: 96 h, average of repeats.
The subject of series [7] is MDCK cells. To be noted: dog.
Series [8] has as its target HA H5 A/Vietnam/1203/04 (Influenza A virus (A/Vietnam/1203/2004(H5N1)), UniProt Q5EP31). As to the kind of experiment: biochemical. As to conditions: Competition binding (AlphaLISA), pIC50 H5 A/Vietnam/1203/04.

In the case of `COC(=O)[C@@H](c1ccccc1)N1CCN(C(=O)c2cccc(-c3nc4ccc(OC)cc4s3)c2)CC1` [Example 22], the IC50 in series [1] is 15.8 nM; in series [2] it was 12.6 nM. In addition, the “Virus neutralization assay (VNA), pEC50 H1N1 A/California/07/09” value in series [3] came out at 6.8. Further, in series [4], the “Virus neutralization assay (VNA), pEC50 H1N1 A/New Caledonia/20/99” value is on record as 6.9. Besides, in series [5], the “Virus neutralization assay (VNA), pEC50 H1N1 A/PR/8/34-MA” value worked out at 6.9. Also, the “Virus neutralization assay (VNA), pEC50 H5N1 A/Vietnam/1203/04” value in series [6] (MDCK cells, CPE by ATPlite) turned out to be 5.8. Besides, in series [7], the “Cytotoxicity (pCC50) MDCK” value is below 4.3.

`COC(=O)C(c1ccccc1)N1CCN(C(=O)c2cccc(-c3ccc(OC)cc3)c2)CC1` (centres unmarked) [Example 128]: the IC50 is 251 nM in series [1], 158 nM in series [2] and 3160 nM in series [8]. The EC50 was 3160 nM in series [3] (Influenza A virus, H1N1, MDCK, 96 h, read-out: Virus neutralization assay (VNA), pEC50 H1N1 A/California/07/09 (converted)) and 10000 nM in series [6] (Influenza A virus, H5N1, MDCK, read-out: Virus neutralization assay (VNA), pEC50 H5N1 A/Vietnam/1203/04, MDCK cells, 96 h, CPE by ATPlite (converted)). In series [4], the “Virus neutralization assay (VNA), pEC50 H1N1 A/New Caledonia/20/99” value is listed as 5.7. In addition, the “Cytotoxicity (pCC50) MDCK” value in series [7] was below 4.3.
